Measured values taken from patent US20020127202A1, “Compounds and compositions for delivering active agents” (Emisphere Technologies, Inc., priority 1996, published 2002).
Where two headings read alike, the source gives them in different places.

What was measured:
[1] = rat, in vivo, 100 mg/kg
Experimental: (§1) The delivery agents were reconstituted with distilled water and/or propylene glycol and adjusted to an apparent pH of 7.2-8.0 with either aqueous hydrochloric acid or aqueous sodium hydroxide. A stock solution of parathyroid hormone was prepared by dissolving parathyroid hormone in water. The parathyroid hormone solution was then added to the delivery agent solution. Several different delivery agent to active agent ratios were studied.
(§2) Male Sprague-Dawley rats weighing 200-250 g were fasted for 24 hours and administered ketamine (44 mg/kg) and chlorpromazine (1.5 mg/kg) 15 minutes prior to dosing. The rats were administered one of the dosing solutions described above by oral gavage or intracolonic instillation. Blood samples were collected serially from the tail artery for serum determination of parathyroid hormone concentration. Serum parathyroid hormone concentrations were quantified by a parathyroid hormone radioimmunoassay test kit.
(§3) Oral administration of solutions containing parathyroid hormone (PTH) and the non-α-amino acid delivery agents was tested in vivo in rats.

[2] = Delivery agent enhancement of salmon calcitonin bioavailability, subcutaneous administration in rats (serum calcium); format: in vivo, Male Sprague-Dawley rats; details: sCT 0.2 μg/kg
[3] = Delivery agent enhancement of parathyroid hormone bioavailability in rats (serum PTH radioimmunoassay)
Experimental: as §1, §2, §3

[4] = Delivery agent enhancement of rhGH bioavailability, subcutaneous administration in rats
Experimental: The delivery agents were reconstituted with distilled water and adjusted to pH 7.2-8.0 with either aqueous hydrochloric acid or aqueous sodium hydroxide. A stock solution of rhGH was prepared by mixing rhGH, D-mannitol and glycine and dissolving this mixture in 2% glycerol/water. The stock solution was then added to the delivery agent solution. Several delivery agent to active agent ratios were studied.
Male Sprague-Dawley rats weighing 200-250g were fasted for 24 hours and administered ketamine (44 mg/kg) and chlorpromazine (1.5 mg/kg) 15 minutes prior to dosing. The rats were administered one of the dosing solutions described above by subcutaneous injection, intranasal instillation, or sublingual instillation. Blood samples were collected serially from the tail artery for serum calcium concentration determination or serum rhGH concentrations. The dose of rhGH administered in these experiments was 0.1 mg/kg.
Serum rhGH concentrations were quantified by an rhGH enzyme immunoassay test kit.

[5] = In vivo delivery of heparin by oral administration in rats (APTT)
Experimental: In a test tube, 900 mg of carrier were dissolved in 3 mL of propylene glycol, and 0.299 g of sodium heparin was dissolved in 3 mL of water. The solutions were mixed by vortex. Sodium hydroxide (10 M) was added to the resulting mixture until a solution was obtained. The pH was then adjusted to 7.4+/−0.5 with concentrated hydrochloric acid, and the final solution was sonicated at for 30 minutes.
A group of fasted, conscious rats were administered the dosing compositions by oral gavage. Blood samples were collected by cardiac puncture following the administration of ketamine (44 mg/kg)., Heparin activity was determined by utilizing the activated partial thromboplastim time (APTT) according to the method of Henry, J. B., Clinical Diagnosis and Management by Laboratory Methods; Philadelphia, Pa.; W B Saunders (1979).
Heparin (100 mg/kg) was administered by oral gavage to rats, and heparin activity was determined according to the procedure of Example 44.

[6] = In vivo delivery of salmon calcitonin in rats (serum calcium)
Experimental: 400 mg of carrier were added to 2.9 mL of 25% aqueous propylene glycol. The resultant solution was stirred, and the pH was adjusted to 7.2 with sodium hydroxide (1.0 N). Water was added to bring the total volume to […]. […] Calcitonin (10 μg) was added to the solution. The total calcitonin concentration was 2.5 μg/mL.
For each sample a group of fasted rats were anesthetized. The rats were administered the dosing composition by oral gavage, intracolonic instillation, or intraduodenal administration. Blood samples were collected serially from the tail artery. Serum calcium was determined by testing with a Calcium Kit (Sigma Chemical Company, St. Louis, Mo., USA).

[7] = In vivo delivery of interferon α2b by intracolonic administration in rats (ELISA); details: carrier dose 100 mg/kg, interferon dose 250 μg/kg
Experimental: Propylene glycol (0-25%) was added as a solubilizing agent, if necessary.
Rats were administered the dosing composition by oral gavage, intraduodenal administration, or intracolonic administration.

[8] = In vivo delivery of rhGH in rats (serum rhGH by ELISA); details: oral, no carrier (0 mg/kg), rhGH dose 6 mg/kg
Experimental: Dosing compositions were prepared by mixing the modified amino acids and recombinant human growth hormone (rhGH) as listed in Table 1 below in a phosphate buffer solution at a pH of about 7-8.
Rats were administered the dosing composition by sublingual, oral gavage, intraduodenal administration, or colonic administration. Delivery was evaluated by using an ELISA assay for rhGH from Medix Biotech, Inc. For intracolonic administration, a sample was prepared and dosed to fasted rats at 25 mg/kg of carrier in a buffered solution containing propylene glycol (0-50%) and 1 mg/kg rhGH.

[9] = intracolonic, carrier dose 100 mg/kg, PTH dose 25 μg/kg
[10] = subcutaneous, delivery agent dose 2.5 mg/kg, rhGH 0.1 mg/kg
[11] = subcutaneous, delivery agent dose 1.0 mg/kg, rhGH 0.1 mg/kg
[12] = carrier dose 300 mg/kg, heparin dose 100 mg/kg

With `O=C(O)CCCc1ccc(NC(=O)CCOc2ccccc2)cc1` [CVIII] the “Peak Serum [PTH]” value [1] was 115 ± 20 pg/mL.

For `O=C(O)CCCCCCCNC(=O)c1ccccc1Br` [CXIV], the “Percent Decrease in Serum Calcium” value ([2]; delivery agent dose 20 μg/kg) was 20 ± 3% and the “Peak Serum [PTH]” value [3, 9] was 65 ± 15 pg/mL.

For `O=C(O)CCCCCCNC(=O)c1ccccc1O` [CXI], the “Peak Serum [rhGH]” value [4, 10] was 16 ± 2 ng/mL and the “Percent Decrease in Serum Calcium” value ([2]; delivery agent dose 20 μg/kg) was 21 ± 4%.

With `O=C(O)CCCCCCCNC(=O)c1ccccc1O` [CXXIII] the “Peak Serum [rhGH]” value [4, 11] was 22 ± 3 ng/mL, the “Peak Serum [rhGH]” value [4, 10] was 25 ± 5 ng/mL and the “Peak Serum [rhGH]” value ([4]; subcutaneous, delivery agent dose 25 mg/kg, rhGH 0.1 mg/kg) was 30 ± 6 ng/mL. For the same molecule, the “Percent Decrease in Serum Calcium” value ([2]; delivery agent dose 2 μg/kg) was 17 ± 3%, the “Percent Decrease in Serum Calcium” value ([2]; delivery agent dose 20 μg/kg) was 25 ± 4% and the “Percent Decrease in Serum Calcium” value ([2]; delivery agent dose 200 μg/kg) was 25 ± 5%. The “Percent Decrease in Serum Calcium” value ([2]; delivery agent dose 2000 μg/kg) was 26 ± 5%, the “Peak Serum [PTH]” value [3, 9] was 130 ± 20 pg/mL and the “Peak Serum [PTH]” value ([3]; oral, carrier dose 250 mg/kg, PTH dose 25 μg/kg) was 20 ± 6 pg/mL. For the same molecule, the “Peak Serum [PTH]” value ([3]; oral, carrier dose 250 mg/kg, PTH dose 100 μg/kg) was 75 ± 25 pg/mL.

With `O=C(O)CCCCCCCNC(=O)c1cccc([N+](=O)[O-])c1` [Compound CXV] the “Peak Serum [rhGH]” value [4, 11] was 25 ± 3 ng/mL.

For `CCC(C(=O)NCCCC(=O)O)C1CCCCC1` (stereo not shown) [Compound III], the “Mean Peak APTT” value [5, 12] was 38.64 ± 17 s.

For `O=C(O)CCCNC(=O)C1CCCCCC1` [Compound II], the “Mean Peak APTT” value [5, 12] was 25.45 ± 2.8 s.

With `COc1ccccc1/C=C/C(=O)Nc1ccc(CCC(=O)O)cc1` [Compound LXXXVI] the “Peak Serum [PTH]” value [1] was 40 ± 12 pg/mL.

In the case of `O=C(O)CCCNC(=O)C1CCCCC1` [Compound V], the “Maximum Decrease in Serum Calcium” value ([6]; oral, carrier dose 400 mg/kg, calcitonin dose 10 μg/kg) is reported as 18.35 +/− 2.87 % below baseline and the “Mean Peak APTT” value [5, 12] is reported as 87.4 ± 34.1 s.

In the case of `O=C(O)CCCCCCCNC(=O)c1ccccc1O` [Compound XIX], the “Maximum Decrease in Serum Calcium” value ([6]; intracolonic, carrier dose 10 mg/kg, calcitonin dose 3 μg/kg) is reported as 26.49 +/− 12.3 % below baseline, the “Maximum Decrease in Serum Calcium” value ([6]; oral, carrier dose 200 mg/kg, calcitonin dose 7.5 μg/kg) is reported as 25.48 +/− 4.7 % below baseline and the “Mean Peak APTT” value [5, 12] is reported as 119.99 ± 56.3 s.

In the case of `O=C(O)CCCCCCCNC(=O)/C=C/c1ccccc1O` [Compound XXI], the “Mean Peak Serum Levels of Interferon” value [7] is reported as 4238 ± 2789 pg/mL.

In the case of `O=C(O)CCCCCCCCCNC(=O)c1ccccc1O` [Compound XXXI], the “Mean Peak APTT” value ([5]; carrier dose 50 mg/kg, heparin dose 10 mg/kg) is reported as 50.85 ± 9.1 s and the “Mean Peak APTT” value ([5]; carrier dose 50 mg/kg, heparin dose 25 mg/kg) is reported as 127.56 ± 22.97 s.

With `CN(C)c1cccc(C(=O)Nc2ccc(CCCC(=O)O)cc2)c1` [LVIII] the “Peak Serum [PTH]” value [1] was 145 ± 25 pg/mL.

For `COc1ccccc1/C=C/C(=O)Nc1ccc(CCCC(=O)O)cc1` [LXXXIX], the “Peak Serum [PTH]” value [1] was 70 ± 15 pg/mL.

For “rhGH: recombinant human growth hormone, active agent dosed alone (Comparative Examples 5A, 16A)”, the “Peak Serum [rhGH]” value ([4]; no delivery agent (0.0 mg/kg), rhGH alone) was 4 ± 2 ng/mL and the “Mean Peak Serum Levels of rhGH” value [8] was less than 10 ± 10 ng/mL.
